Laboratory results taken from US20180022780A1, “STABILIZATION ADRENOMEDULLIN DERIVATIVES AND USE THEREOF” (priority 2014, published 2018).
Bridge positions count the residues as written; N and C are the ends. Square brackets hold non-standard residues; d marks the D form. Peptide text beside a SMILES is read from it. Orn = NCCC[C@H](N)C(=O)O; Dab = NCC[C@H](N)C(=O)O

Key:
[1] = biological target: T1, human adrenomedullin-receptor (Homo sapiens, UniProt O60895+Q16602); experiment: Tests on a recombinant adrenomedullin-receptor reporter cell (CHO, aequorin luminescence); type: cell-based; conditions: Table 1, CHO cell line carrying the human adrenomedullin-receptor
T1 construct: expressed in transfected cells; host or cells: CHO (Chinese hamster ovary) recombinant reporter cell line with aequorin
Method: Activation of the receptor by ligands was measured by aequorin luminescence. Construction of the cell line and measurement procedure has been described in detail [Wunder F., Rebmann A., Geerts A, and Kalthof B., Mol Pharmacol, 73, 1235-1243 (2008)]. In brief: Cells were seeded on opaque 384-well microtiter plates at a density of 4000 cells/well and were grown for 24 h. After removal of culture medium, cells were loaded for 3 h with 0.6 μg/ml coelenterazine in Ca^2+-free Tyrode solution (130 mM sodium chloride, 5 mM potassium chloride, 20 mM HEPES (4-(2-hydroxyethyl)-1-piperazineethanesulfonic acid), 1 mM magnesium chloride, and 4.8 mM sodium hydrogen carbonate, pH 7.4) supplemented with 0.2 mM 3-Isobutyl-1-methylxanthine (IBMX) in a cell culture incubator. Examples were added for 6 min in calcium^2+-free Tyrode solution containing 0.1% bovine serum albumin. Immediately before adding calcium^2+ to a final concentration of 3 mM measurement of the aequorin luminescence was started by use of a suitable luminometer. Luminescence was measured for 60 s. In a typical experiment compounds were tested in a concentration range of 1×10^−13 to 3×10^−6 M.

[2] = biological target: T2, CLR fused to EYFP and RAMP2 fused to ECFP (Homo sapiens, UniProt O60895+Q16602); experiment: cAMP assay (CRE luciferase reporter, HEK-293 cells transiently co-transfected with CLR and RAMP2); type: cell-based; conditions: Table 2, cAMP assay; HEK-293, CLR/RAMP2, CRE luciferase, 3 h stimulation, normalized to [G^14]ADM(14-52)
T2 construct: EYFP; ECFP; expressed in transfected cells; host or cells: HEK-293 cells, transient co-transfection
Outline: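 HEK-293 cells transiently co-transfected with CLR-EYFP, RAMP2-ECFP and a CRE-luc2P luciferase reporter were stimulated with ligands (eight concentrations, triplicate) for 3 h at 37 °C. Luminescence was corrected to 5 µM forskolin, normalized to [G^14]ADM(14-52) standard, and fitted by non-linear regression to dose-response curves.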

T2 sequence (Q16602 23-461): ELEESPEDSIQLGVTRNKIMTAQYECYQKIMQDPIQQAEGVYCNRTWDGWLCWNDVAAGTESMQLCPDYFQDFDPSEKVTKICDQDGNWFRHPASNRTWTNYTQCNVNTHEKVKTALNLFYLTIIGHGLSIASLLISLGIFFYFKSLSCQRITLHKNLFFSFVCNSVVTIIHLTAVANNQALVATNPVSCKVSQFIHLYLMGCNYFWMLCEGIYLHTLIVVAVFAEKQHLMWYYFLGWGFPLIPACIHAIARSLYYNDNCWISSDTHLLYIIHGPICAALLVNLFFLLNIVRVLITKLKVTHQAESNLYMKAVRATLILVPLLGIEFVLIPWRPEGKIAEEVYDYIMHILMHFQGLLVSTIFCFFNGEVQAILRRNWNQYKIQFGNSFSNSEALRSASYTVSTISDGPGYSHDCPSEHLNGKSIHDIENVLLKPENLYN
T2 sequence (O60895 43-175): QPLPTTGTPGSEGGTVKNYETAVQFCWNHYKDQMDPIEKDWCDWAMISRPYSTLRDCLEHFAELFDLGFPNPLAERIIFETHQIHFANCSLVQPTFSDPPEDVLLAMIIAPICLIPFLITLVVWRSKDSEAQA
T1 sequence (Q16602 23-461): as the sequence (Q16602 23-461) above
T1 sequence (O60895 43-175): as the sequence (O60895 43-175) above

Row | EC50 [1] | EC50 [2] | Structure (SMILES)
1 | > 1000 nM | > 1000 nM | CC[C@H](C)[C@H](NC(=O)[C@H](CCC(N)=O)NC(=O)[C@H](Cc1c[nH]cn1)NC(=O)[C@H](C)NC(=O)[C@H](CC(C)C)NC(=O)[C@H](CCCCN)NC(=O)[C@H](CCC(N)=O)NC(=O)[C@@H](NC(=O)[C@@H](NC(=O)[C@@H]1CC(=O)NCCC[C@H](NC(=O)CNC(=O)CN)C(=O)N[C@@H](CCCNC(=N)N)C(=O)N[C@@H](Cc2ccccc2)C(=O)NCC(=O)N[C@@H]([C@@H](C)O)C(=O)N1)[C@@H](C)O)C(C)C)C(=O)N[C@@H](Cc1ccc(O)cc1)C(=O)N[C@@H](CCC(N)=O)C(=O)N[C@@H](Cc1ccccc1)C(=O)N[C@H](C(=O)N[C@@H](CC(=O)O)C(=O)N[C@@H](CCCCN)C(=O)N[C@@H](CC(=O)O)C(=O)N[C@@H](CCCCN)C(=O)N[C@@H](CC(=O)O)C(=O)N[C@@H](CC(N)=O)C(=O)N[C@H](C(=O)N[C@@H](C)C(=O)N1CCC[C@H]1C(=O)N[C@@H](CCCNC(=N)N)C(=O)N[C@@H](CO)C(=O)N[C@@H](CCCCN)C(=O)N[C@H](C(=O)N[C@@H](CO)C(=O)N1CCC[C@H]1C(=O)N[C@@H](CCC(N)=O)C(=O)NCC(=O)N[C@@H](Cc1ccc(O)cc1)C(N)=O)[C@@H](C)CC)C(C)C)[C@@H](C)O [Example 9, ((2S,5S,11S,14S,21S)-21-(2-(2-aminoacetamido)acetamido)-5-benzyl-2-(3-guanidinopropyl)-11-((R)-1-hydroxyethyl)-3,6,9,12,16,22-hexaoxo-1,4,7,10,13,17-hexaazacyclodocosane-14-carbonyl)-L-threonyl-ADM(22-52)] (H-GG[Orn]RFGTDTVQKLAHQIYQFTDKDKDNVAPRSKISPQGY-NH2; lactam 3-8)
2 | > 1000 nM | 21 nM | CC[C@H](C)[C@H](NC(=O)[C@H](CCC(N)=O)NC(=O)[C@H](Cc1c[nH]cn1)NC(=O)[C@H](C)NC(=O)[C@H](CC(C)C)NC(=O)[C@H](CCCCN)NC(=O)[C@H](CCC(N)=O)NC(=O)[C@@H](NC(=O)[C@@H](NC(=O)[C@@H]1CCCNC(=O)CC[C@H](NC(=O)CNC(=O)CN)C(=O)N[C@@H](CCCNC(=N)N)C(=O)N[C@@H](Cc2ccccc2)C(=O)NCC(=O)N[C@@H]([C@@H](C)O)C(=O)N1)[C@@H](C)O)C(C)C)C(=O)N[C@@H](Cc1ccc(O)cc1)C(=O)N[C@@H](CCC(N)=O)C(=O)N[C@@H](Cc1ccccc1)C(=O)N[C@H](C(=O)N[C@@H](CC(=O)O)C(=O)N[C@@H](CCCCN)C(=O)N[C@@H](CC(=O)O)C(=O)N[C@@H](CCCCN)C(=O)N[C@@H](CC(=O)O)C(=O)N[C@@H](CC(N)=O)C(=O)N[C@H](C(=O)N[C@@H](C)C(=O)N1CCC[C@H]1C(=O)N[C@@H](CCCNC(=N)N)C(=O)N[C@@H](CO)C(=O)N[C@@H](CCCCN)C(=O)N[C@H](C(=O)N[C@@H](CO)C(=O)N1CCC[C@H]1C(=O)N[C@@H](CCC(N)=O)C(=O)NCC(=O)N[C@@H](Cc1ccc(O)cc1)C(N)=O)[C@@H](C)CC)C(C)C)[C@@H](C)O [Example 19, ((2S,5S,11S,14S,22S)-22-(2-(2-aminoacetamido)acetamido)-5-benzyl-2-(3-guanidinopropyl)-11-((R)-1-hydroxyethyl)-3,6,9,12,19,23-hexaoxo-1,4,7,10,13,18-hexaazacyclotricosane-14-carbonyl)-L-threonyl-ADM(22-52)] (H-GGERFGT[Orn]TVQKLAHQIYQFTDKDKDNVAPRSKISPQGY-NH2; lactam 3-8)
3 | 15 nM | 2.3 nM | CC[C@H](C)[C@H](NC(=O)[C@H](CCC(N)=O)NC(=O)[C@H](Cc1c[nH]cn1)NC(=O)[C@H](C)NC(=O)[C@H](CC(C)C)NC(=O)[C@H](CCCCN)NC(=O)[C@H](CCC(N)=O)NC(=O)[C@@H](NC(=O)[C@@H](NC(=O)[C@@H]1CCCCNC(=O)C[C@H](NC(=O)CNC(=O)CN)C(=O)N[C@@H](CCCNC(=N)N)C(=O)N[C@@H](Cc2ccccc2)C(=O)NCC(=O)N[C@@H]([C@@H](C)O)C(=O)N1)[C@@H](C)O)C(C)C)C(=O)N[C@@H](Cc1ccc(O)cc1)C(=O)N[C@@H](CCC(N)=O)C(=O)N[C@@H](Cc1ccccc1)C(=O)N[C@H](C(=O)N[C@@H](CC(=O)O)C(=O)N[C@@H](CCCCN)C(=O)N[C@@H](CC(=O)O)C(=O)N[C@@H](CCCCN)C(=O)N[C@@H](CC(=O)O)C(=O)N[C@@H](CC(N)=O)C(=O)N[C@H](C(=O)N[C@@H](C)C(=O)N1CCC[C@H]1C(=O)N[C@@H](CCCNC(=N)N)C(=O)N[C@@H](CO)C(=O)N[C@@H](CCCCN)C(=O)N[C@H](C(=O)N[C@@H](CO)C(=O)N1CCC[C@H]1C(=O)N[C@@H](CCC(N)=O)C(=O)NCC(=O)N[C@@H](Cc1ccc(O)cc1)C(N)=O)[C@@H](C)CC)C(C)C)[C@@H](C)O [Example 22, ((3S,9S,12S,15S,23S)-15-(2-(2-aminoacetamido)acetamido)-9-benzyl-12-(3-guanidinopropyl)-3-((R)-1-hydroxyethyl)-2,5,8,11,14,17-hexaoxo-1,4,7,10,13,18-hexaazacyclotricosane-23-carbonyl)-L-threonyl-ADM(22-52)] (H-GGDRFGTKTVQKLAHQIYQFTDKDKDNVAPRSKISPQGY-NH2; lactam 3-8)
4 | > 1000 nM | 112 nM | CC[C@H](C)[C@H](NC(=O)[C@H](CCC(N)=O)NC(=O)[C@H](Cc1c[nH]cn1)NC(=O)[C@H](C)NC(=O)[C@H](CC(C)C)NC(=O)[C@H](CCCCN)NC(=O)[C@H](CCC(N)=O)NC(=O)[C@@H](NC(=O)[C@@H](NC(=O)[C@@H]1CC(=O)NCC[C@H](NC(=O)CNC(=O)CN)C(=O)N[C@@H](CCCNC(=N)N)C(=O)N[C@@H](Cc2ccccc2)C(=O)NCC(=O)N[C@@H]([C@@H](C)O)C(=O)N1)[C@@H](C)O)C(C)C)C(=O)N[C@@H](Cc1ccc(O)cc1)C(=O)N[C@@H](CCC(N)=O)C(=O)N[C@@H](Cc1ccccc1)C(=O)N[C@H](C(=O)N[C@@H](CC(=O)O)C(=O)N[C@@H](CCCCN)C(=O)N[C@@H](CC(=O)O)C(=O)N[C@@H](CCCCN)C(=O)N[C@@H](CC(=O)O)C(=O)N[C@@H](CC(N)=O)C(=O)N[C@H](C(=O)N[C@@H](C)C(=O)N1CCC[C@H]1C(=O)N[C@@H](CCCNC(=N)N)C(=O)N[C@@H](CO)C(=O)N[C@@H](CCCCN)C(=O)N[C@H](C(=O)N[C@@H](CO)C(=O)N1CCC[C@H]1C(=O)N[C@@H](CCC(N)=O)C(=O)NCC(=O)N[C@@H](Cc1ccc(O)cc1)C(N)=O)[C@@H](C)CC)C(C)C)[C@@H](C)O [Example 5, ((2S,5S,11S,14S,20S)-20-(2-(2-aminoacetamido)acetamido)-5-benzyl-2-(3-guanidinopropyl)-11-((R)-1-hydroxyethyl)-3,6,9,12,16,21-hexaoxo-1,4,7,10,13,17-hexaazacyclohenicosane-14-carbonyl)-L-threonyl-ADM(22-52)] (H-GG[Dab]RFGTDTVQKLAHQIYQFTDKDKDNVAPRSKISPQGY-NH2; lactam 3-8)
